Reference: PMC4710522, “A Novel Triazolopyridine-Based Spleen Tyrosine Kinase Inhibitor That Arrests Joint Inflammation” (PLoS ONE, 2016)
pIC50: −log10 of the molar value. Read-outs that look alike come from different tables or passages of the source.

Assays:
ALK_h = molecular target: T1, ALK_h (Homo sapiens, UniProt Q9UM73); assay: SelectScreen kinase assay; assay type: biochemical; conditions: KM ATP, read-out: % control
T1 construct: purchased Life Technologies (Invitrogen) SelectScreen, Z'-LYTE / Adapta
T1 sequence (Q9UM73 19-1620): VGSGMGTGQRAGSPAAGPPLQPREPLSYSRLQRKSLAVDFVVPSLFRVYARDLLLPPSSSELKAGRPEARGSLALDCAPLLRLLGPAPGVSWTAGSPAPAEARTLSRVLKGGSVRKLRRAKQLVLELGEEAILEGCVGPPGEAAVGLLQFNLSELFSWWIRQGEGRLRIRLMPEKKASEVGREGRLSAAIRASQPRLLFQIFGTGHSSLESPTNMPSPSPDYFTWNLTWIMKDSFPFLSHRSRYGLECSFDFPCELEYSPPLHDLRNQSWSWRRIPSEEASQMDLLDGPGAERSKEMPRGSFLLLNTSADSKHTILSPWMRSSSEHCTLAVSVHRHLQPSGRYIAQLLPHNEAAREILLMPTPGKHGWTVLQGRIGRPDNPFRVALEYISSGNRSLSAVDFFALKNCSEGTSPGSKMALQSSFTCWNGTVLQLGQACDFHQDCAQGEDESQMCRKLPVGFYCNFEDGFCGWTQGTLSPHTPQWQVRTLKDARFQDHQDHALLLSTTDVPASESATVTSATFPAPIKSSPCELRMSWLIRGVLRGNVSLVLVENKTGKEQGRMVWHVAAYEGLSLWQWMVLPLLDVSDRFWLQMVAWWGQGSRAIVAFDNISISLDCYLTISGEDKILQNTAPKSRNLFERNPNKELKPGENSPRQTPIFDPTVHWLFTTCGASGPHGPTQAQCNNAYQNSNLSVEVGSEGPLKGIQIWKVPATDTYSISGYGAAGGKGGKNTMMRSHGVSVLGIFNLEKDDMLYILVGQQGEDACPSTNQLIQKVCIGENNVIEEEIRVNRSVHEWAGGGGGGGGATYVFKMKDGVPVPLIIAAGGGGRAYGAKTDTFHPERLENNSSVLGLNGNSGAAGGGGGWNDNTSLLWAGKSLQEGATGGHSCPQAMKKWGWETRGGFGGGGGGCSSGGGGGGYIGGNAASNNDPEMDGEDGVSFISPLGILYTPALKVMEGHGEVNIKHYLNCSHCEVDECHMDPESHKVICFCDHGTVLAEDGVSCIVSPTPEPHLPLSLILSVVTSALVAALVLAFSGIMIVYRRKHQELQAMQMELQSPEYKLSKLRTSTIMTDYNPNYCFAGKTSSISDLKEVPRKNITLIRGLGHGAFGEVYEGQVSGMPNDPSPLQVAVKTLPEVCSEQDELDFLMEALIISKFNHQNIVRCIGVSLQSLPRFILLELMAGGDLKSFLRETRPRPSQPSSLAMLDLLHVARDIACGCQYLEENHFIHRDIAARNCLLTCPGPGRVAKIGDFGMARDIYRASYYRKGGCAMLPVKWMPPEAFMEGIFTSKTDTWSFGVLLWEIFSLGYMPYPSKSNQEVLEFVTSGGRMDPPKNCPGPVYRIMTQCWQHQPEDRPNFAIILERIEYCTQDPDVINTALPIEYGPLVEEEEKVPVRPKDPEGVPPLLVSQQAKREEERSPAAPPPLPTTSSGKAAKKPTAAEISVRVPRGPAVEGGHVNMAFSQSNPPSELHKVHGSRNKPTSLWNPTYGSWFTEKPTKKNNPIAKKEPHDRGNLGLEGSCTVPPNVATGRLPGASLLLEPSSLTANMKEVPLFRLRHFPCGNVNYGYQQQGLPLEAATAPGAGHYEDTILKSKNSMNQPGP
Procedure, shortened: (§1)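 Kinase activity measured by Z'-Lyte or Adapta protocols. Single-point testing used 3 µM compound with ATP at the enzyme's KM, or at 10 or 100 µM as indicated. Values given as % control versus DMSO-only wells (100%).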

Aurora-A_h = molecular target: T2, Aurora-A_h (Homo sapiens, UniProt O14965); assay: SelectScreen kinase assay; assay type: biochemical; conditions: KM ATP, read-out: % control
T2 construct: purchased Life Technologies (Invitrogen) SelectScreen, Z'-LYTE / Adapta
Procedure, shortened: as §1

Aurora-C_h = molecular target: T3, Aurora-C_h (Homo sapiens, UniProt Q9UQB9); assay: SelectScreen kinase assay; assay type: biochemical; conditions: KM ATP, read-out: % control
T3 construct: purchased Life Technologies (Invitrogen) SelectScreen, Z'-LYTE / Adapta
Procedure, shortened: as §1

CK1-gamma2_h = molecular target: T4, CK1-gamma2_h (Homo sapiens, UniProt P78368); assay: SelectScreen kinase assay; assay type: biochemical; conditions: KM ATP, read-out: % control
T4 construct: purchased Life Technologies (Invitrogen) SelectScreen, Z'-LYTE / Adapta
Procedure, shortened: as §1

CLK3_h = molecular target: T5, CLK3_h (Homo sapiens, UniProt P49761); assay: SelectScreen kinase assay; assay type: biochemical; conditions: KM ATP, read-out: % control
T5 construct: purchased Life Technologies (Invitrogen) SelectScreen, Z'-LYTE / Adapta
Procedure, shortened: as §1

CaMKI-delta_h = molecular target: T6, CaMKI-delta_h (Homo sapiens, UniProt Q8IU85); assay: SelectScreen kinase assay; assay type: biochemical; conditions: KM ATP, read-out: % control
T6 construct: purchased Life Technologies (Invitrogen) SelectScreen, Z'-LYTE / Adapta
Procedure, shortened: as §1

EGFR_L861Q_h = molecular target: T7, EGFR_L861Q_h (Homo sapiens, UniProt P00533, L861Q); assay: SelectScreen kinase assay; assay type: biochemical; conditions: KM ATP, read-out: % control
T7 construct: purchased Life Technologies (Invitrogen) SelectScreen, Z'-LYTE / Adapta
Procedure, shortened: as §1

EphB1_h = molecular target: T8, EphB1_h (Homo sapiens, UniProt P54762); assay: SelectScreen kinase assay; assay type: biochemical; conditions: KM ATP, read-out: % control
T8 construct: purchased Life Technologies (Invitrogen) SelectScreen, Z'-LYTE / Adapta
Procedure, shortened: as §1

Fes_h = molecular target: T9, Fes_h (Homo sapiens, UniProt P07332); assay: SelectScreen kinase assay; assay type: biochemical; conditions: KM ATP, read-out: % control
T9 construct: purchased Life Technologies (Invitrogen) SelectScreen, Z'-LYTE / Adapta
Procedure, shortened: as §1

GSK3-beta_h = molecular target: T10, GSK3-beta_h (Homo sapiens, UniProt P49841); assay: SelectScreen kinase assay; assay type: biochemical; conditions: KM ATP, read-out: % control
T10 construct: purchased Life Technologies (Invitrogen) SelectScreen, Z'-LYTE / Adapta
Procedure, shortened: as §1

Gck_h = molecular target: T11, Gck_h (Homo sapiens, UniProt Q12851); assay: SelectScreen kinase assay; assay type: biochemical; conditions: KM ATP, read-out: % control
T11 construct: purchased Life Technologies (Invitrogen) SelectScreen, Z'-LYTE / Adapta
Procedure, shortened: as §1

IKBKE_h = molecular target: T12, IKBKE_h (Homo sapiens, UniProt Q14164); assay: SelectScreen kinase assay; assay type: biochemical; conditions: KM ATP, read-out: % control
T12 construct: purchased Life Technologies (Invitrogen) SelectScreen, Z'-LYTE / Adapta
Procedure, shortened: as §1

IKK-beta_h = molecular target: T13, IKK-beta_h (Homo sapiens, UniProt O14920); assay: SelectScreen kinase assay; assay type: biochemical; conditions: KM ATP, read-out: % control
T13 construct: purchased Life Technologies (Invitrogen) SelectScreen, Z'-LYTE / Adapta
Procedure, shortened: as §1

IR_h = molecular target: T14, IR_h (Homo sapiens, UniProt P06213); assay: SelectScreen kinase assay; assay type: biochemical; conditions: KM ATP, read-out: % control
T14 construct: purchased Life Technologies (Invitrogen) SelectScreen, Z'-LYTE / Adapta
Procedure, shortened: as §1

JNK2-alpha2_h = molecular target: T15, JNK2-alpha2_h (Homo sapiens, UniProt P45984); assay: SelectScreen kinase assay; assay type: biochemical; conditions: 100 µM ATP, read-out: % control
T15 construct: purchased Life Technologies (Invitrogen) SelectScreen, Z'-LYTE / Adapta
Procedure, shortened: as §1

MRCK-alpha_h = molecular target: T16, MRCK-alpha_h (Homo sapiens, UniProt Q5VT25); assay: SelectScreen kinase assay; assay type: biochemical; conditions: KM ATP, read-out: % control
T16 construct: purchased Life Technologies (Invitrogen) SelectScreen, Z'-LYTE / Adapta
Procedure, shortened: as §1

MuSK_h = molecular target: T17, MuSK_h (Homo sapiens, UniProt O15146); assay: SelectScreen kinase assay; assay type: biochemical; conditions: KM ATP, read-out: % control
T17 construct: purchased Life Technologies (Invitrogen) SelectScreen, Z'-LYTE / Adapta
Procedure, shortened: as §1

PAK6_h = molecular target: T18, PAK6_h (Homo sapiens, UniProt Q9NQU5); assay: SelectScreen kinase assay; assay type: biochemical; conditions: KM ATP, read-out: % control
T18 construct: purchased Life Technologies (Invitrogen) SelectScreen, Z'-LYTE / Adapta
Procedure, shortened: as §1

PDK1_h = molecular target: T19, PDK1_h (Homo sapiens, UniProt O15530); assay: SelectScreen kinase assay; assay type: biochemical; conditions: read-out: % control
T19 construct: purchased Life Technologies (Invitrogen) SelectScreen, Z'-LYTE / Adapta
T19 sequence (O15530 whole entry): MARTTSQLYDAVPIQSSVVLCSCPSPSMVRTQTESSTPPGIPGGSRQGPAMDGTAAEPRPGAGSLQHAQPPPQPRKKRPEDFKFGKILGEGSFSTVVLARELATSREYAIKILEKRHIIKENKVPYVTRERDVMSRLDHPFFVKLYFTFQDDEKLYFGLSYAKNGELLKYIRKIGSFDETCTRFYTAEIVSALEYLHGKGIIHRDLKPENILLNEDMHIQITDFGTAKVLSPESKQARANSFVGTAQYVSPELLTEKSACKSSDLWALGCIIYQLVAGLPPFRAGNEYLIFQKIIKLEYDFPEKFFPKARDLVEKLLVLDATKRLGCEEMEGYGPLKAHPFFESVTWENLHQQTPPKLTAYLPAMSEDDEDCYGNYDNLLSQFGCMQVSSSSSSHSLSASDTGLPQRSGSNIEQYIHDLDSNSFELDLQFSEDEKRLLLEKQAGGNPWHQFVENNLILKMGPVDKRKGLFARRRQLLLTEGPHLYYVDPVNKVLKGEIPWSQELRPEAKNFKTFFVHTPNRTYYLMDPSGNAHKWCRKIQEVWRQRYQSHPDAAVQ
Procedure, shortened: as §1

PKC-mu_h = molecular target: T20, PKC-mu_h (Homo sapiens, UniProt Q15139); assay: SelectScreen kinase assay; assay type: biochemical; conditions: KM ATP, read-out: % control
T20 construct: purchased Life Technologies (Invitrogen) SelectScreen, Z'-LYTE / Adapta
Procedure, shortened: as §1

Pim-2_h = molecular target: T21, Pim-2_h (Homo sapiens, UniProt Q9P1W9); assay: SelectScreen kinase assay; assay type: biochemical; conditions: KM ATP, read-out: % control
T21 construct: purchased Life Technologies (Invitrogen) SelectScreen, Z'-LYTE / Adapta
Procedure, shortened: as §1

Ret_Y791F_h = molecular target: T22, Ret_Y791F_h (Homo sapiens, UniProt P07949, Y791F); assay: SelectScreen kinase assay; assay type: biochemical; conditions: KM ATP, read-out: % control
T22 construct: purchased Life Technologies (Invitrogen) SelectScreen, Z'-LYTE / Adapta
Procedure, shortened: as §1

Ret_h = Ret_h (Homo sapiens, UniProt P07949); assay: SelectScreen kinase assay; assay type: biochemical
Ret_h, sequence (P07949 29-1114): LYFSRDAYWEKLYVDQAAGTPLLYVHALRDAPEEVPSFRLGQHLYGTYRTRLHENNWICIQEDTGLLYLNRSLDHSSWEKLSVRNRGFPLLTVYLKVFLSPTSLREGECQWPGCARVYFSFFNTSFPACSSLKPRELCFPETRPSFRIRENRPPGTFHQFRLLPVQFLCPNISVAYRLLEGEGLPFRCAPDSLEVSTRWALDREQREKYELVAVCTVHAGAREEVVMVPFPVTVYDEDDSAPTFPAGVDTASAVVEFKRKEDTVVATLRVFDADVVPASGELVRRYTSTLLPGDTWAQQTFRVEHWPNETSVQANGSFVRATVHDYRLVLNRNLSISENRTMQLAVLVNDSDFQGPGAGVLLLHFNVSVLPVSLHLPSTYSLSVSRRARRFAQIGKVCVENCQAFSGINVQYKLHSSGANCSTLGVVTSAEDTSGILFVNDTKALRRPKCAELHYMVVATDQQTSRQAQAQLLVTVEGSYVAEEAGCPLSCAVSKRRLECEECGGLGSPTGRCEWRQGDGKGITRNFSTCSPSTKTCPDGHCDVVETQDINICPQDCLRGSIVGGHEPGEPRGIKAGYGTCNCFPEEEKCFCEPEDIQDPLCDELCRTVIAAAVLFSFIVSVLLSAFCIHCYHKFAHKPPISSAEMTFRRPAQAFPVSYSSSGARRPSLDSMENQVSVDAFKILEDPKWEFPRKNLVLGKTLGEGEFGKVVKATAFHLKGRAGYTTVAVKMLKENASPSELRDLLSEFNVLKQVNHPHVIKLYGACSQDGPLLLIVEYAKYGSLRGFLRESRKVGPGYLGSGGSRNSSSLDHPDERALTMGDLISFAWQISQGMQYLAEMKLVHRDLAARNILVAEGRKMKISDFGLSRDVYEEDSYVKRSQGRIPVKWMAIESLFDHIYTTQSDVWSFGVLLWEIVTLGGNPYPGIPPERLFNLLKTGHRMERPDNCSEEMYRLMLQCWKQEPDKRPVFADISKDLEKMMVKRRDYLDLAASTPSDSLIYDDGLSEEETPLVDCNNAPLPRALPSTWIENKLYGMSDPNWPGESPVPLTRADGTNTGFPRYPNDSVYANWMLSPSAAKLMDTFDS
Procedure, shortened: as §1

Syk_h = Syk_h (Homo sapiens, UniProt P43405); assay: SelectScreen kinase assay; assay type: biochemical
Procedure, shortened: as §1

TSSK1_h = molecular target: T23, TSSK1_h (Homo sapiens, UniProt Q9BXA7); assay: SelectScreen kinase assay; assay type: biochemical; conditions: KM ATP, read-out: % control
T23 construct: purchased Life Technologies (Invitrogen) SelectScreen, Z'-LYTE / Adapta
Procedure, shortened: as §1

p38-beta_h = molecular target: T24, p38-beta_h (Homo sapiens, UniProt Q15759); assay: SelectScreen kinase assay; assay type: biochemical; conditions: KM ATP, read-out: % control
T24 construct: purchased Life Technologies (Invitrogen) SelectScreen, Z'-LYTE / Adapta
T24 sequence (Q15759 whole entry): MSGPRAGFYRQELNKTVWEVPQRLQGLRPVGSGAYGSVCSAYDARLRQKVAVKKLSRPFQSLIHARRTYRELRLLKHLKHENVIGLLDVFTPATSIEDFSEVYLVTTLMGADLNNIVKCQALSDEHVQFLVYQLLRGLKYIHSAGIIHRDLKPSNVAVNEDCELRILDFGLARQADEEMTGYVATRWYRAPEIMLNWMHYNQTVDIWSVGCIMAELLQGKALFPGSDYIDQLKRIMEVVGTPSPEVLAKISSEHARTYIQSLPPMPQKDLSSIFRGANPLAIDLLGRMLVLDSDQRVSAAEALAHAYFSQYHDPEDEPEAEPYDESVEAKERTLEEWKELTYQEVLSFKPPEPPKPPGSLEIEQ
Procedure, shortened: as §1

NEK7_h = molecular target: T25, NEK7_h (Homo sapiens, UniProt Q8TDX7); assay: SelectScreen kinase assay; assay type: biochemical; conditions: KM ATP, read-out: % control
T25 construct: purchased Life Technologies (Invitrogen) SelectScreen, Z'-LYTE / Adapta
T25 sequence (Q8TDX7 whole entry): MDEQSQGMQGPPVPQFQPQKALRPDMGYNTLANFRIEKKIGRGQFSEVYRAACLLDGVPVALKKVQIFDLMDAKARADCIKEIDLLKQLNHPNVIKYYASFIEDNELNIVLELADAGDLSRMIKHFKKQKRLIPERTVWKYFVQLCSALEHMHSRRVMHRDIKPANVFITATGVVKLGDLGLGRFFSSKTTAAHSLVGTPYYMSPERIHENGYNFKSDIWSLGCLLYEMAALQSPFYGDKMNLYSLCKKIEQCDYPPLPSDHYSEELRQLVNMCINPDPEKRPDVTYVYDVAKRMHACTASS

[1] = molecular target: T26, human ether-à-go-go-related Gene (hERG) channel (Homo sapiens, UniProt Q12809); assay: non-GLP manual patch clamp hERG assay (ChanTest); assay type: cell-based; conditions: data not shown
T26 construct: ChanTest (contract assay)
T26 sequence (Q12809 whole entry): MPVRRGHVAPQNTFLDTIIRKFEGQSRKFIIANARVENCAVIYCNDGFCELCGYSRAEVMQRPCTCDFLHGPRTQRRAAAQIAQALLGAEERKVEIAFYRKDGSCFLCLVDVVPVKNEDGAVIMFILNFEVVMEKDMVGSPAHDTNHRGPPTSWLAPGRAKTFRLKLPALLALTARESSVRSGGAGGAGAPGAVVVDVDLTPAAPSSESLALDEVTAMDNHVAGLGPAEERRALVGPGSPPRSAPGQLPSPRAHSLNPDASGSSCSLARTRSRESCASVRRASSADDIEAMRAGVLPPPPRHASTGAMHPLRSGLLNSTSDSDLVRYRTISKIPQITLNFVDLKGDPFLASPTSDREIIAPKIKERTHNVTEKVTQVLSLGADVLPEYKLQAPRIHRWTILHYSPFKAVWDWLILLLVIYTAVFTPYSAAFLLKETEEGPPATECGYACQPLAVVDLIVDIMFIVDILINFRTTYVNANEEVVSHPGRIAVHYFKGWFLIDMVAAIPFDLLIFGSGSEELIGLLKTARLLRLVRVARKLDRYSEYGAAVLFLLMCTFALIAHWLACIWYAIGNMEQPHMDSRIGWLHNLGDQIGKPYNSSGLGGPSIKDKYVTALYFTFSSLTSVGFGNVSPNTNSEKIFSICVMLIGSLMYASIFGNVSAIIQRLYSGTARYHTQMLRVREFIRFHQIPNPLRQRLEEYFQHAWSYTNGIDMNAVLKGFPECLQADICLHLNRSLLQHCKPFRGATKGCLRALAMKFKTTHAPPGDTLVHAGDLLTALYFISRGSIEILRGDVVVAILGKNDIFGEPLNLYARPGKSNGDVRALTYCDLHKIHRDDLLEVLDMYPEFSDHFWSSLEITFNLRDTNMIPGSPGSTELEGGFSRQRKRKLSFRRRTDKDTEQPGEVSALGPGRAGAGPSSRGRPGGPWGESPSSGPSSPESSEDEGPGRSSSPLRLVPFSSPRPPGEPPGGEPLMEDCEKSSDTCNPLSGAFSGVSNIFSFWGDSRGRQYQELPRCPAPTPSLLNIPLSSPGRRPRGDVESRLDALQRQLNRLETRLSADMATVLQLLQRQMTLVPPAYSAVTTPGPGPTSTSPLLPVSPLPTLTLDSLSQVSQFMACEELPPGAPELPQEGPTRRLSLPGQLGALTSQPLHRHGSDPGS
Experimental: Syk kinase mode of inhibition studies, including parameters described in Fig 1, were conducted on the LC3000 platform by Caliper Life Sciences (Hopkinton, MA) according to standard protocols developed by the supplier. […] Non-kinase enzyme assays and GPCR, ion channel, and transporter binding assays were run by CEREP (France). Non-GLP manual patch clamp hERG assays were run by ChanTest (Cleveland, Ohio). Vivid® Assay kits (Life Technologies) were used to measure the cytochrome P450 inhibition of the compound against CYP3A, CYP2C9, CYP2C19, CYP2D6, and CYP1A2, as described.

[2] = 3 µM, KM ATP, read-out: % control
[3] = 10-point dose-response, commercial vendor

c1cc(CC2CCOCC2)n2nc(Nc3ccc4c(NC5CCOCC5)n[nH]c4c3)nc2c1 [CC-509, [3-(2H-3,4,5,6-tetrahydropyran-4-ylamino)(1H-indazol-6-yl)][5-(2H-3,4,5,6-tetrahydropyran-4-ylmethyl)(2H-1,2,4-triazolo[1,5-a]pyridin-2-yl)]amine]
remaining activity at 3 µM (ALK_h): 45% | remaining activity at 3 µM (Aurora-A_h): 6% | remaining activity at 3 µM (Aurora-C_h): 18% | remaining activity at 3 µM (CK1-gamma2_h): 68% | remaining activity at 3 µM (CLK3_h): 81% | remaining activity at 3 µM (CaMKI-delta_h): 86% | remaining activity at 3 µM (EGFR_L861Q_h): 97% | remaining activity at 3 µM (EphB1_h): 41% | remaining activity at 3 µM (Fes_h): 53% | remaining activity at 3 µM (GSK3-beta_h): 88% | remaining activity at 3 µM (Gck_h): 57% | remaining activity at 3 µM (IKBKE_h): 67% | remaining activity at 3 µM (IKK-beta_h): 99% | remaining activity at 3 µM (IR_h): 91% | remaining activity at 3 µM (JNK2-alpha2_h): 88% | remaining activity at 3 µM (MRCK-alpha_h): 91% | remaining activity at 3 µM (MuSK_h): 41% | remaining activity at 3 µM (PAK6_h): 91% | remaining activity at 3 µM (PDK1_h; 100 µM ATP): 78% | remaining activity at 3 µM (PDK1_h; KM ATP): 47% | remaining activity at 3 µM (PKC-mu_h): 34% | remaining activity at 3 µM (Pim-2_h): 99% | remaining activity at 3 µM (Ret_Y791F_h): 18% | remaining activity at 3 µM (Ret_h; [2]): 13% | pIC50 (Ret_h; [3]): 6.40 | remaining activity at 3 µM (Syk_h; [2]): -2% | pIC50 (Syk_h; [3]): 7.56 | remaining activity at 3 µM (TSSK1_h): 62% | remaining activity at 3 µM (p38-beta_h): 84% | remaining activity at 3 µM (NEK7_h): 102% | inhibition of hERG channel activity [1]: did not inhibit
